Assay results published in patent publication US9775902B2, “Compounds and methods for treatment of stroke” (FIBROGEN, INC, priority 2006, dated 2017).
Like-named read-outs stand apart in the source and are kept apart here. Marks after values point to notes of the source that are not given here.

Columns and labels:
[1] = system: C57BL/6 mice, permanent occlusion of the MCA; assay: Permanent middle cerebral artery occlusion (pMCAO) in C57BL/6 mice: infarct volume and edema; assay type: in vivo; details: C57BL/6 mice pMCAO, 20-60 mg/kg i.v.; for inhibition in vivo at up to 20 mg/kg: Mus musculus, iv, 24 h, 24 hours after MCA occlusion, read-out: Percent Reduction in Infarct Volume
Protocol: The effect of compounds of the present invention on infarct volume and edema associated with stroke was examined in an animal model of ischemic stroke. In these studies, mice were subjected to permanent occlusion of the middle cerebral artery. Mice were anesthetized intraperitoneally with avertin (0.5 mg/g). Mice were then immobilized in a rodent stereotaxic frame (Kopf Instruments, Tujunga Calif.) and maintained with avertin as needed. The surgical area of the head was swabbed with 70% ethanol and a lateral incision was made between the right orbit and the right ear. […] The distal course of the middle cerebral artery (MCA) was visible through the translucent skull. A small burr-hole craniotomy was performed with a micro-drill (Fine Science Tools, Foster City Calif.). The meninges/dura was removed and the MCA was coagulated by bipolar diathermy. The muscle and soft tissue were replaced and the incision closed with vet-bond adhesive (3M, St. Paul Minn.). These studies were performed in two different mouse models of pMCAO as described below.
In one series of experiments, male C57BL/6 mice (25-35 g) were subjected to permanent occlusion of the MCA as described above. Compounds of the present invention were administered by intravenous injection at various times before or after MCA occlusion (see Table 7). Animals administered compound by intravenous injection received a 6 ml/kg volume of either 5% Dextrose with an equimolar amount of Meglumine (vehicle control) or 20-60 mg/kg of a compound of the present invention in 5% dextrose with an equimolar amount of Meglumine. Body temperature of the animals was maintained by use of a heating pad both during and after surgery. Twenty-four hours after MCA occlusion animals were euthanized with CO2 and their brains removed. After removal, the brain was sliced in 7 coronal sections, each 1 mm thick. The sections were placed rostral side down in a petri dish and stained with 1% Triphenyl tetrazolium chloride for 20 minutes at 37° C. for determination of infarct volume. Brain sections were then digitally photographed and analyzed for changes in infarct volume and extent of edema. Infarct volumes were determined by measuring the infarcted (i.e., non-stained) areas of each brain section and multiplying this value by the section thickness. Extent of edema was determined by the net increase in volume of the ipsilateral cortex compared to that of the contralateral cortex of brain sections.
The effect of compounds of the present invention administered at various times following the onset of stroke was examined further as follows. In these studies, changes in infarct volume were measured using an animal model of stroke when compounds of the present invention were administered from 0 to 8 hours following permanent MCA occlusion. In one series of experiments, male C57BL/6 mice (25-35 g) were subjected to permanent occlusion of the MCA as described above. Compound F was administered to the animals by a single intravenous bolus injection at various times up to 5 hours after MCA occlusion (see Table 8 below). Animals administered compound by intravenous injection received a 6 ml/kg volume of either 5% Dextrose with an equimolar amount of NaOH (vehicle control) or 60 mg/kg of Compound F in 5% dextrose with an equimolar amount of NaOH. Body temperature of the animals was maintained by use of a heating pad both during and after surgery. Changes in infarct volumes were determined as described above.
In another set of experiments, male C57BL/6 mice (25-35 g) were subjected to permanent occlusion of the MCA as described above. Compound F was administered by single intravenous bolus injection at various times up to 8 hours after MCA occlusion (see Table 9 below). Animals administered compound by intravenous injection received a 6 ml/kg volume of either 5% Dextrose with an equimolar amount of Meglumine (vehicle control) or 60 mg/kg of Compound F in 5% dextrose with an equimolar amount of Meglumine. […]

VEGF = assay: Plasma VEGF in mice after intravenous injection; assay type: in vivo, Swiss Webster mice; details: mouse plasma, 20 mg/kg i.v., four hours after injection; for fold induction at 20 mg/kg: iv, 4 h, read-out: VEGF Fold Increase
Protocol: (§1) The effect of compounds of the present invention on expression of cytoprotective and neuroprotective factors in vivo was evaluated as follows. In one series of experiments, male Swiss Webster mice (29-34 g) were administered various compounds of the present invention via intravenous injection into the caudal tail vein. Animals treated by intravenous injection received a 6 ml/kg volume of either 5% Dextrose with an equimolar amount of NaOH or Meglumine (vehicle control) or 20 mg/kg of a compound of the present invention in 5% dextrose with an equimolar amount of NaOH or Meglumine. Four hours after injection, the animals were anesthetized and exsanguinated. Plasma samples were collected in EDTA and heparin coated microtainer tubes. Plasma samples were assayed for erythropoietin and VEGF using commercially-available ELISA kits purchased from R & D Systems (Minneapolis Minn.).

erythropoietin (EPO) [2] = assay: EPO expression in Hep3B cells (QUANTIKINE immunoassay of conditioned media); assay type: cell-based, Human; details: for Fold Increase Over Control: EPO, vs 1% DMSO control; for EPO: conditioned media after overnight incubation with compound
Protocol: The effect of compounds of the present invention on expression of cytoprotective and neuroprotective factors in cells was evaluated as follows. Human cells derived from hepatocarcinoma (Hep3B) tissue (see, e.g., American Type Culture Collection, Manassas Va.) were seeded into 35 mm culture dishes and grown at 37° C., 20% O2, 5% CO2 in Minimal Essential Medium (MEM), Earle's balanced salt solution (Mediatech Inc., Herndon Va.), 2 mM L-glutamine, 0.1 mM non-essential amino acids, 1 mM sodium pyruvate, and 10% FBS. When cell layers reached confluence, the media was replaced with OPTI-MEM media (Invitrogen Life Technologies, Carlsbad Calif.) and cell layers were incubated for approximately 24 hours in 20% O2, 5% CO2 at 37° C. Various compounds of the present invention or 1% DMSO (negative control) were then added to existing media and incubation was continued overnight.
Following incubation, the conditioned media was collected from cell cultures and analyzed for erythropoietin (EPO) expression using a QUANTIKINE immunoassay (R&D Systems, Inc., Minneapolis Minn.) according to the manufacturer's instructions.

erythropoietin (EPO) [3] = assay: EPO expression in Kelly neuroblastoma cells; assay type: cell-based; details: for EPO: conditioned media after overnight incubation
Protocol: (§2) The effect of compounds of the present invention on expression of cytoprotective and neuroprotective factors in neuroblastoma cells was evaluated as follows. Kelly neuroblastoma cells (see, e.g., DSMZ, cat# ACC-355, Braunschweig Germany) were treated with various compounds of the present invention or 1% DMSO (negative control). Following an overnight incubation, the conditioned media was collected from cell cultures and analyzed for erythropoietin (EPO) and vascular endothelial growth factor (VEGF) expression using a QUANTIKINE immunoassay (R&D Systems, Inc., Minneapolis Minn.) according to the manufacturer's instructions.

[4] = system: vascular endothelial growth factor (VEGF); assay: VEGF expression in Kelly neuroblastoma cells; assay type: cell-based; details: for VEGF: conditioned media after overnight incubation
Protocol: as §2

erythropoietin = assay: Plasma EPO in mice after intravenous injection; assay type: in vivo, Swiss Webster mice; details: mouse plasma, 20 mg/kg i.v., four hours after injection; for fold induction at 20 mg/kg: iv, 4 h, read-out: EPO Fold Increase
Protocol: as §1

[5] = compound given 4 hr after occlusion

SMILES | Percent Reduction in Edema ([1]; compound given 0 hr) | inhibition in vivo at up to 20 mg/kg ([1]; compound given 0 hr) | fold induction at 20 mg/kg (VEGF) | VEGF (VEGF) | Fold Increase Over Control (erythropoietin (EPO) [2]) | EPO (erythropoietin (EPO) [2]) | EPO Fold Increase (erythropoietin (EPO) [3]) | EPO (erythropoietin (EPO) [3]) | VEGF Fold Increase [4] | VEGF [4] | fold induction at 20 mg/kg (erythropoietin) | EPO (erythropoietin; mouse EPO ELISA kit (**)) | inhibition in vivo at up to 20 mg/kg [1, 5] | EPO (erythropoietin; human EPO ELISA kit (*))
O=Cc1nc(C(=O)NCC(=O)O)c(O)c2cc(Oc3ccccc3)ccc12 [Compound AK, [(1-Formyl-4-hydroxy-6-phenoxy-isoquinoline-3-carbonyl)-amino]-acetic acid] | −12* % | 13% | 1.12 | 47 pg/mL | 14.9 | 35.3 mIU/ml | 2.23 | 42.2 mIU/ml | 3.9 | 5698 pg/mL | 62.8 | 2763 pg/mL | – | –
O=C(O)CNC(=O)c1nc(Br)c2ccsc2c1O [Compound AE, [(4-Bromo-7-hydroxy-thieno[3,2-c]pyridine-6-carbonyl)-amino]-acetic acid] | – | – | 1.45 | 29 pg/mL | 3.0 | 12.6 mIU/ml | 3.6 | 95.5 mIU/ml | 2.7 | 3710.0 pg/mL | – | 3825 pg/mL | 63% | –
O=C(O)CNC(=O)c1ncc2cc(Oc3ccccc3)ccc2c1O [Compound AC, [(4-Hydroxy-7-phenoxy-isoquinoline-3-carbonyl)-amino]acetic acid] | – | 17% | 2.15 | 70 pg/mL | 10.8 | 160.1 mIU/ml | 11.9 | 73.8 mIU/ml | 15.8 | 2503.8 pg/mL | 2940 | – | – | 294 mIU/ml
Cc1nc(C(=O)NCC(=O)O)c(O)c2cc(-c3ccc(F)cc3)sc12 [Compound P, {[2-(4-Fluoro-phenyl)-4-hydroxy-7-methyl-thieno[2,3-c]pyridine-5-carbonyl]-amino}-acetic acid] | – | 37% | 1.15 | 45 pg/mL | 7.2 | 54.9 mIU/ml | 13.90 | 262.8 mIU/ml | 5.1 | 7453 pg/mL | 5.88 | 62.3 pg/mL | – | –
N#Cc1nc(C(=O)NCC(=O)O)c(O)c2c(Oc3ccccc3)cccc12 [Compound AM, [(1-Cyano-4-hydroxy-5-phenoxy-isoquinoline-3-carbonyl)-amino]-acetic acid] | – | – | 0.38 | 24 pg/mL | 8.2 | 44.3 mIU/ml | 6.25 | 118.07 mIU/ml | 4.0 | 5825 pg/mL | 235 | 28206 pg/mL | 71% | –
CCc1c(O)c(C(=O)NCC(=O)O)nc2cc(Cl)ccc12 [Compound AT, [(7-Chloro-4-ethyl-3-hydroxy-quinoline-2-carbonyl)-amino]-acetic acid] | – | – | 1.02 | 43 pg/mL | 30.0 | 81.0 mIU/ml | 31.08 | 587.5 mIU/ml | 8.3 | 11350 pg/mL | 3.84 | 169 pg/mL | – | –
O=C(O)CNC(=O)c1nc2cc(Cl)ccc2c(I)c1O [Compound T, [(7-Chloro-3-hydroxy-4-iodo-quinoline-2-carbonyl)-amino]acetic acid] | – | – | 1.24 | 31 pg/mL | 49.3 | 100.7 mIU/ml | 15.83 | 299.1 mIU/ml | 5.6 | 8159 pg/mL | 4.65 | 498 pg/mL | – | –
O=C(O)CNC(=O)c1ncc2cc(Oc3ccccc3)sc2c1O [Compound AG, [(7-Hydroxy-2-phenoxy-thieno[3,2-c]pyridine-6-carbonyl)-amino]-acetic acid] | – | – | 1.76 | 51 pg/mL | 8.5 | 27.3 mIU/ml | 14.44 | 273 mIU/ml | 5.9 | 8670 pg/mL | 1.91 | 303 pg/mL | – | –
Cc1nc2ccc(Oc3ccc4c(C#N)nc(C(=O)NCC(=O)O)c(O)c4c3)cc2o1 [Compound AQ, {[1-Cyano-4-hydroxy-6-(2-methyl-benzooxazol-6-yloxy)-isoquinoline-3-carbonyl]-amino}-acetic acid] | – | – | 1.69 | 59 pg/mL | 16.5 | 32.9 mIU/ml | 4.34 | 82 mIU/ml | 2.6 | 3795 pg/mL | 23.8 | 11464 pg/mL | – | –
